{
  "source": "patent US11813239B2",
  "about": "“Compositions and methods for improving cardiac structure and/or function” (Wisconsin Alumni Research Foundation, priority 2020, dated 2023)",
  "key": {"[1]": {"target": "SDH (Homo sapiens, UniProt O14521+P21912+Q99643)", "sequence (P31040 43-664 partner)": "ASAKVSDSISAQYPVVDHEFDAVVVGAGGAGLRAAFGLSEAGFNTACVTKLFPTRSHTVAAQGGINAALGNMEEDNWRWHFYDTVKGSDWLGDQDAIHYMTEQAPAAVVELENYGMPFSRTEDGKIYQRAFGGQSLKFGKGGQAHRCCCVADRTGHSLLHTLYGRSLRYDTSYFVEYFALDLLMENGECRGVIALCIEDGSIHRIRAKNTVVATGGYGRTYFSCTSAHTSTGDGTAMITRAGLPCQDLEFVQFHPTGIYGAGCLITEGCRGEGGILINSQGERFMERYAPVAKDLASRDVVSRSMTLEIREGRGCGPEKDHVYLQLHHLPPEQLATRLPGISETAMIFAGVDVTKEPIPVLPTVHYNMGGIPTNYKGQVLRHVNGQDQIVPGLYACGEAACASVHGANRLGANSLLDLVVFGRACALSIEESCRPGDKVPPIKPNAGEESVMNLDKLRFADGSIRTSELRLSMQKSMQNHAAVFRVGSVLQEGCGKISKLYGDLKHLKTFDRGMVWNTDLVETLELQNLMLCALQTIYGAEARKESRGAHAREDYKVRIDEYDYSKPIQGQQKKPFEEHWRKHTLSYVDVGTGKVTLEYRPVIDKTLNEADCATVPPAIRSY", "sequence (P21912 29-280)": "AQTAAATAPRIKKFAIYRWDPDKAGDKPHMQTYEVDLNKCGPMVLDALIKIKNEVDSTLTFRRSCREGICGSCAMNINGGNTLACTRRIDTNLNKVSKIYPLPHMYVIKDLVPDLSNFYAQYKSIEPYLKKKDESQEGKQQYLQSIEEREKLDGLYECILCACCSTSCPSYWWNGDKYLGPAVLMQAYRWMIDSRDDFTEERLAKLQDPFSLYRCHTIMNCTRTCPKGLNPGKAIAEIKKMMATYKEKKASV", "sequence (Q99643 30-169)": "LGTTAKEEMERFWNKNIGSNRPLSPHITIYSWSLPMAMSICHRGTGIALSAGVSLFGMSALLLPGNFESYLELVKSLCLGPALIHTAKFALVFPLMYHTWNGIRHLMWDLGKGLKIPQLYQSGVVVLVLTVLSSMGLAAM", "sequence (O14521 57-159)": "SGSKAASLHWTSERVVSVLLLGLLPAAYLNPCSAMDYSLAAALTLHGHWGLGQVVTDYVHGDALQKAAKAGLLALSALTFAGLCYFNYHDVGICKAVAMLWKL", "conditions": "literature reference 21 (Miyadera et al. 2003); cited from earlier work"}, "[2]": {"test_system": "postnatal (P7) mouse heart following myocardial infarction", "assay": "Echocardiography after myocardial infarction in P7 juvenile mice", "conditions": "for % EF (Ejection Fraction) / % FS (Fractional Shortening) / LV Mass (Left Ventricular Mass, Anatomical Weight) / LV Vol; d (Left Ventricular Volume; diastole) / LV Vol; s (Left Ventricular Volume; systole) / LVAWD (Left Ventricle Anterior Wall Thickness Diastole) / LVAWS (Left Ventricle Anterior Wall Thickness Systole) / LVIDD (Left Ventricle Internal Diameter Diastole) / LVIDS (Left Ventricle Internal Diameter Systole) / LVPWD (Left Ventricle Posterior Wall Thickness Diastole) / LVPWS (Left Ventricle Posterior Wall Thickness Systole): Atpenin A5 100 μg/kg daily, mean ± SE", "description": "(§1) Neonatal mice at postnatal day 1 (P1) or day 7 (P7) were used for myocardial infarction (MI) surgery. Neonatal mice were subjected to MI surgeries as previously described. Briefly, neonates were anesthetized by hypothermia on ice. Lateral thoracotomy at the fourth intercostal space was performed by blunt dissection of the intercostal muscles after skin incision. A C-1 tapered needle attached to a 6-0 prolene suture (Ethicon Inc., Bridgewater, N.J.) was passed through the mid-ventricle below the left anterior descending coronary artery (LAD) and tied off to induce MI. The prolene suture was used to suture the ribs together and seal the chest wall incisions, and the skin was closed using adhesive glue (3M). The mice then were warmed on a heating pad until recovery. Sham-operated mice underwent the same procedure including hypothermic anesthesia, but not LAD ligation.\n(§2) Neonatal mice were weighed and injected daily with either saline, 100 mg/kg dimethyl succinate (Sigma), 100 mg/kg dimethyl malonate (Sigma), or 100 μg/kg Atpenin A5 (Enzo Life Sciences). Dimethyl succinate and dimethyl malonate were dissolved in saline. Stock solution of Atpenin A5 at 0.1 mg/ml was initially prepared by dissolving in DMSO (Sigma) and then further diluted with saline before injection. Saline was used as a vehicle control for all experiments.\nTransthoracic echocardiography was performed by using a Visual Sonics 770 ultrasonograph with a 25-MHz transducer (Visual Sonics, Toronto) as described previously^19. Mice were lightly anesthetized with 1% isoflurane and maintained on a heated platform. Two-dimensionally guided M-mode images from a parasternal long axis (PLAX) of the left ventricle (LV) were acquired at the tip of the papillary muscles. Wall thickness and chamber diameters were measured in both diastole and systole. Fractional shortening was calculated as (LVDd−LVDs)/LVDd×100, where LVDd is LV diameter in diastole and LVDs is LV diameter in systole. Ejection fraction was calculated as [(7.0/(2.4+LVDd)(LVDd)^3−(7.0/(2.4+LVDs)(LVDs)^3/(7.0/(2.4+LVDd)(LVDd)^3×100 and LV mass was calculated by using the formula [1.05×((Posterior Walldiastole+Anterior Walldiastole+LVDd)^3−(LVDd)^3)]. All parameters were measured over at least three consecutive cycles.\nWe injected dimethyl malonate (100 mg/kg, daily) in neonatal mice directly after birth for 2 weeks with an MI performed once the mice reached P7. We then analyzed the hearts following injury to determine whether malonate results in prolongation of the neonatal regenerative window (FIG. 10A)."}, "[3]": {"test_system": "cardiomyocytes", "assay": "Immunostaining (pH3, Aurora B), WGA and trichrome staining after MI in P7 mice", "conditions": "vs controls", "excerpt": "We then analyzed the hearts following injury to determine whether malonate results in prolongation of the neonatal regenerative window (FIG. 5A). To examine whether malonate stimulates cardiomyocyte proliferation, we performed MI in 7-day-old mice and analyzed their hearts at 7 days post-MI by immunostaining for markers of proliferation.\nas §1, §2\nHearts were harvested and fixed in 4% paraformaldehyde (PFA) in PBS solution overnight at 4° C., processed for paraffin embedding, and sectioned in intervals. Masson's trichrome staining was performed according to the manufacture's protocol (Newcomer Supply, Middleton, WI). Scar size measurements were quantified from at least 3 sections of the heart from ligature to apex. ImageJ was used to quantify the fibrotic scar, and the average scar area for each heart was plotted.\nWe injected dimethyl malonate (100 mg/kg, daily) in neonatal mice directly after birth for 2 weeks with an MI performed once the mice reached P7."}, "[4]": {"conditions": "MI at P7 (n = 8), echo 21 days post-MI (P7D21)"}, "[5]": {"conditions": "sham at P7 (SH, n = 6), echo at day 21 (P7D21)"}, "[6]": {"conditions": "MI at P7, Atpenin A5 100 μg/kg daily, 7 days post-MI"}, "[7]": {"conditions": "MI at P7, Atpenin A5 100 μg/kg daily, 21 days post-MI"}},
  "data": [
    {"smiles": "COc1[nH]c(=O)c(C(=O)[C@@H](C)C[C@H](C)[C@@H](Cl)CCl)c(O)c1OC", "note": "[Atpenin A5]", "values": [
      {"measurement": "inhibition of SDH", "setting": "[1]", "value": "potent inhibitor of SDH"},
      {"measurement": "% EF (Ejection Fraction)", "setting": "[2]; [4]", "value": "49.676 ± 2.072", "unit": "%"},
      {"measurement": "% FS (Fractional Shortening)", "setting": "[2]; [4]", "value": "24.642 ± 1.227", "unit": "%"},
      {"measurement": "LV Mass (Left Ventricular Mass, Anatomical Weight)", "setting": "[2]; [4]", "value": "54.203 ± 7.978", "unit": "mg"},
      {"measurement": "LV Vol; d (Left Ventricular Volume; diastole)", "setting": "[2]; [4]", "value": "50.033 ± 6.416", "unit": "µL"},
      {"measurement": "LV Vol; s (Left Ventricular Volume; systole)", "setting": "[2]; [4]", "value": "25.290 ± 3.427", "unit": "µL"},
      {"measurement": "LVAWD (Left Ventricle Anterior Wall Thickness Diastole)", "setting": "[2]; [4]", "value": "0.525 ± 0.023", "unit": "mm"},
      {"measurement": "LVAWS (Left Ventricle Anterior Wall Thickness Systole)", "setting": "[2]; [4]", "value": "0.644 ± 0.032", "unit": "mm"},
      {"measurement": "LVIDD (Left Ventricle Internal Diameter Diastole)", "setting": "[2]; [4]", "value": "3.438 ± 0.167", "unit": "mm"},
      {"measurement": "LVIDS (Left Ventricle Internal Diameter Systole)", "setting": "[2]; [4]", "value": "2.592 ± 0.132", "unit": "mm"},
      {"measurement": "LVPWD (Left Ventricle Posterior Wall Thickness Diastole)", "setting": "[2]; [4]", "value": "0.521 ± 0.025", "unit": "mm"},
      {"measurement": "LVPWS (Left Ventricle Posterior Wall Thickness Systole)", "setting": "[2]; [4]", "value": "0.643 ± 0.027", "unit": "mm"},
      {"measurement": "cardiac function by echocardiography", "setting": "[2]; MI at P7, Atpenin A5 100 μg/kg daily, 3 weeks post-MI", "value": "restoration of cardiac function"},
      {"measurement": "% EF (Ejection Fraction)", "setting": "[2]; [5]", "value": "51.652 ± 3.984", "unit": "%"},
      {"measurement": "% FS (Fractional Shortening)", "setting": "[2]; [5]", "value": "25.773 ± 2.586", "unit": "%"},
      {"measurement": "LV Mass (Left Ventricular Mass, Anatomical Weight)", "setting": "[2]; [5]", "value": "42.822 ± 4.210", "unit": "mg"},
      {"measurement": "LV Vol; d (Left Ventricular Volume; diastole)", "setting": "[2]; [5]", "value": "39.614 ± 7.039", "unit": "µL"},
      {"measurement": "LV Vol; s (Left Ventricular Volume; systole)", "setting": "[2]; [5]", "value": "19.979 ± 4.374", "unit": "µL"},
      {"measurement": "LVAWD (Left Ventricle Anterior Wall Thickness Diastole)", "setting": "[2]; [5]", "value": "0.493 ± 0.042", "unit": "mm"},
      {"measurement": "LVAWS (Left Ventricle Anterior Wall Thickness Systole)", "setting": "[2]; [5]", "value": "0.615 ± 0.041", "unit": "mm"},
      {"measurement": "LVIDD (Left Ventricle Internal Diameter Diastole)", "setting": "[2]; [5]", "value": "3.100 ± 0.229", "unit": "mm"},
      {"measurement": "LVIDS (Left Ventricle Internal Diameter Systole)", "setting": "[2]; [5]", "value": "2.319 ± 0.221", "unit": "mm"},
      {"measurement": "LVPWD (Left Ventricle Posterior Wall Thickness Diastole)", "setting": "[2]; [5]", "value": "0.536 ± 0.027", "unit": "mm"},
      {"measurement": "LVPWS (Left Ventricle Posterior Wall Thickness Systole)", "setting": "[2]; [5]", "value": "0.648 ± 0.030", "unit": "mm"},
      {"measurement": "percentage of cardiomyocytes undergoing cytokinesis (Aurora B staining)", "setting": "[3]; [6]", "value": "significant increase"},
      {"measurement": "percentage of cardiomyocytes undergoing mitosis (pH3 staining)", "setting": "[3]; [6]", "value": "significant increase"},
      {"measurement": "myocardial regeneration (trichrome staining)", "setting": "[3]; [7]", "value": "myocardial thickness at the infarct zone"},
      {"measurement": "scar size (trichrome staining, ImageJ)", "setting": "[3]; [7]", "value": "significant reduction in scar size"}
    ]},
    {"smiles": "COC1=C(OC)C(=O)C(CCCCCCCCCC[P+](c2ccccc2)(c2ccccc2)c2ccccc2)=C(C)C1=O", "note": "[MitoQ]", "values": [
      {"measurement": "cardiac function by echocardiography (EF and FS)", "setting": "[2]; MI at P7, MitoQ 10 mg/kg intraperitoneally daily for 2 weeks after birth, vs controls", "value": "no improvement in cardiac function"},
      {"measurement": "cardiomyocyte mitosis (pH3 immunostaining)", "setting": "[3]; MI at P7, MitoQ 10 mg/kg intraperitoneally daily for 2 weeks after birth, 7 days post-MI", "value": "significant increase in cardiomyocyte mitosis"}
    ]}
  ]
}
